Test results reported in patent US20260217708A1, “FUSED BENZAZEPINE DERIVATIVES FOR USE IN THE TREATMENT OF CANCER AND EPILEPSY” (UCB BIOPHARMA SRL, priority 2023, published 2026).

Tests used:
[1] = target: T1, system Xc^− (Homo sapiens, UniProt Q9UPY5); assay: [^14C]L-Cystine uptake assay; format: cell-based; design: endogenous in cells; host or cells: H4 cells; settings: H4 cells, sodium-free HEPES buffer, 0.5 μM L-[14C]Cystine and 4.5 μM L-Cystine, 1 hour at 37° C.; for IC50: read-out: pIC50 [^14C] L-Cystine uptake assay (converted)
T1 sequence (Q9UPY5 1-501): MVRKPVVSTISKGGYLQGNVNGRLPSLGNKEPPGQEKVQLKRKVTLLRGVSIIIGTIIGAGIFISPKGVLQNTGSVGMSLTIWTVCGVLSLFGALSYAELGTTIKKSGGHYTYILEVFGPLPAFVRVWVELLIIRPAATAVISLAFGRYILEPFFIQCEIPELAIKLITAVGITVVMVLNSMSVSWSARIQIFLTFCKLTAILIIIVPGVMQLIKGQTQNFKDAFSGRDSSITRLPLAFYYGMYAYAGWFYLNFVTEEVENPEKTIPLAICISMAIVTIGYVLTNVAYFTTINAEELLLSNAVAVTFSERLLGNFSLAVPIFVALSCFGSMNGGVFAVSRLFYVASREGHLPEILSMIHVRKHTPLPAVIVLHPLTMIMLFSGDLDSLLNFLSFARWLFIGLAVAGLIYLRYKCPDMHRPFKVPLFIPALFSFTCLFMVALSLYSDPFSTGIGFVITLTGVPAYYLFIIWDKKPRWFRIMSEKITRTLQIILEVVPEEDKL
T1 sequence (P08195 1-529 partner): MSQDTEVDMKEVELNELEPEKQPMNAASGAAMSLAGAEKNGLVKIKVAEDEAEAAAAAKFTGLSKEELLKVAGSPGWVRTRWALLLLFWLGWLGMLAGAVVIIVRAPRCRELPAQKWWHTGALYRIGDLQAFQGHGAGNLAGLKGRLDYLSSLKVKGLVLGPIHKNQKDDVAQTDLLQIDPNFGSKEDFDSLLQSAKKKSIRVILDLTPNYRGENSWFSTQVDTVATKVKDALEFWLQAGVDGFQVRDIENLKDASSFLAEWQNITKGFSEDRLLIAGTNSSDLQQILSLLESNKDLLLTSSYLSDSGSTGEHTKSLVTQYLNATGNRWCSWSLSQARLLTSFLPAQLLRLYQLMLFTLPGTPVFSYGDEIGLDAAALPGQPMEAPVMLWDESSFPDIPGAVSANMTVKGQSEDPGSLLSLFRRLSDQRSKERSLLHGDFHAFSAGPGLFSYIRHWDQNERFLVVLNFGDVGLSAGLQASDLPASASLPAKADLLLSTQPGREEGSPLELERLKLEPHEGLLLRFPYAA
Method in brief: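 Compound effect is given as pIC50, taken between controls of 1% DMSO and 50 μM Erastin. Human H4 cells were pretreated 15 min with compound in sodium-free buffer, then took up 0.5 μM [14C]cystine with 4.5 μM cold cystine for 1 hour at 37° C, read by scintillation proximity counting.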

[2] = target: T1, system Xc^−; assay: Cystine-induced glutamate release assay; format: cell-based; design: endogenous in cells; host or cells: H4 cells; settings: H4 cells, sodium-free HEPES buffer, 50 μM L-Cystine, 2 hours, Amplex Red glutamate readout; for IC50: read-out: pIC50 Cystine-induced glutamate release assay (converted)
Method in brief: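 IC50 (reported as pIC50) normalized to DMSO 1% and Erastin 50 μM controls, from Amplex Red fluorescence of glutamate exported into supernatant. H4 cells were washed into sodium-free buffer to exclude EAAT transport, then given compound with 50 μM L-cystine for 2 h in the incubator.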

Compound | IC50 [1] [µM] | IC50 [2] [µM] | pIC50 [^14C] L-Cystine uptake assay [1] | pIC50 Cystine-induced glutamate release assay [2]
Cc1cc2c(c(=O)[nH]1)-c1ccccc1[C@@H](C)C(=O)N2CC(=O)Nc1ccc(C(F)(F)F)cc1 (single isomer, unassigned) [#205, Entnaiomer (7R) or (7S) of 2-[3,7-dimethyl-1,6-dioxo-2,7-dihydropyrido[4,3-d][3]benzazepin-5-yl]-N-[4-(trifluoromethyl)phenyl]acetamide] | < 0.0158 | 0.0158 to 0.0398 |  | 
Cc1cc2c(c(F)n1)-c1cccnc1[C@@H](CO)C(=O)N2CC(=O)Nc1ccc(C(F)(F)F)cc1 (single isomer, unassigned) [#206, Enantiomer (10S) or (10R) of 2-[(3-fluoro-10-(hydroxymethyl)-5-methyl-9-oxo-4,8,12-triazatricyclo[9.4.0.0^2,7]pentadeca-1(11),2(7),3,5,12,14-hexaen-8-yl]-N-[4-(trifluoromethyl)phenyl]acetamide] | < 0.0158 | 0.0398 to 0.1 |  | 
Cc1cc2c(c(Cl)n1)-c1cncnc1[C@@H](C)C(=O)N2CC(=O)Nc1ccc(C(F)(F)F)cc1 (single isomer, unassigned) [#207, Enantiomer (8S) or (8R) of 2-[15-chloro-8,13-dimethyl-9-oxo-4,6,10,14-tetrazatricyclo[9.4.0.0^2,7]pentadeca-1(11),2,4,6,12,14-hexaen-10-yl]-N-[4-(trifluoromethyl)phenyl]acetamide] | < 0.0158 | 0.0158 to 0.0398 |  | 
Cc1cc2c(n(C)c1=O)-c1cccnc1[C@@H](C)C(=O)N2CC(=O)Nc1ccc(C(F)(F)F)cc1 (single isomer, unassigned) [#208, Enantiomer (10S) or (10R) of N-[4-(trifluoromethyl)phenyl]-2-[3,5,10-trimethyl-4,9-dioxo-3,8,12-triazatricyclo[9.4.0.0^2,7]pentadeca-1(11),2(7),5,12,14-pentaen-8-yl]acetamide] | < 0.0158 | < 0.0158 |  | 
COc1cc2c(c(F)n1)-c1cccnc1[C@@H](C)C(=O)N2CC(=O)Nc1ccc(C(F)(F)F)cc1 (single isomer, unassigned) [#209, Enantiomer (10S) or (10R) of 2-[3-fluoro-5-methoxy-10-methyl-9-oxo-4,8,12-triazatricyclo[9.4.0.0^2,7]pentadeca-1(15),2(7),3,5,11,13-hexaen-8-yl]-N-[4-(trifluoromethyl)phenyl]acetamide] | 0.0158 to 0.0398 | 0.0158 to 0.0398 |  | 
CO[C@H]1C(=O)N(CC(=O)Nc2ccc(C(F)(F)F)cc2)c2cc(C)nc(Cl)c2-c2cccnc21 (single isomer, unassigned) [#210, Enantiomer (10S) or (10R) of 2-[3-chloro-10-methoxy-5-methyl-9-oxo-4,8,12-triazatricyclo[9.4.0.0^2,7]pentadeca-1(11),2(7),3,5,12,14-hexaen-8-yl]-N-[4-(trifluoromethyl)phenyl]acetamide] | < 0.0158 | 0.0158 to 0.0398 |  | 
Cc1cc2c(c(F)n1)-c1cccnc1[C@@H](O)C(=O)N2CC(=O)Nc1ccc(C(F)(F)F)cc1 (single isomer, unassigned) [#211, Enantiomer (10S) or (10R) of 2-[3-fluoro-10-hydroxy-5-methyl-9-oxo-4,8,12-triazatricyclo[9.4.0.0^2,7]pentadeca-1(11),2(7),3,5,12,14-hexaen-8-yl]-N-[4-(trifluoromethyl)phenyl]acetamide] | 0.0158 to 0.0398 | < 0.0158 |  | 
Cc1cc2c(c(F)n1)-c1cccnc1C(O)C(=O)N2CC(=O)Nc1ccc(Br)c(Cl)c1 (single isomer, unassigned) [#213, Enantiomer (10S) or (10R) of N-(4-bromo-3-chloro-phenyl)-2-[(10S)-3-fluoro-10-hydroxy-5-methyl-9-oxo-4,8,12-triazatricyclo[9.4.0.0^2,7]pentadeca-1(11),2(7),3,5,12,14-hexaen-8-yl]acetamide] | 0.0158 to 0.0398 | 0.0158 to 0.0398 |  | 
COc1cc2c(c(F)n1)-c1cccnc1C(C)C(=O)N2CC(=O)Nc1ccc(C(F)F)cc1 (single isomer, unassigned) [#214, Enantiomer (10S) or (10R) of N-[4-(difluoromethyl)phenyl]-2-[3-fluoro-5-methoxy-10-methyl-9-oxo-4,8,12-triazatricyclo[9.4.0.0^2,7]pentadeca-1(15),2(7),3,5,11,13-hexaen-8-yl]acetamide] |  |  | C (about 7.40 < pIC50 ≤ about 7.80) | D (plC50 > about 7.80)
COc1cc2c(c(F)n1)-c1cccnc1C(C)C(=O)N2CC(=O)Nc1ccc(Cl)c(F)c1 (single isomer, unassigned) [#215, Enantiomer (10S) or (10R) of N-(4-chloro-3-fluoro-phenyl)-2-[3-fluoro-5-methoxy-10-methyl-9-oxo-4,8,12-triazatricyclo[9.4.0.0^2,7]pentadeca-1(15),2(7),3,5,11,13-hexaen-8-yl]acetamide] |  |  | C (about 7.40 < pIC50 ≤ about 7.80) | C (about 7.40 < pIC50 ≤ about 7.80)
COc1cc2c(c(F)n1)-c1cccnc1C(C)C(=O)N2CC(=O)Nc1ccc(F)c(Cl)c1 (single isomer, unassigned) [#216, Enantiomer (10S) or (10R) of N-(3-chloro-4-fluoro-phenyl)-2-(3-fluoro-5-methoxy-10-methyl-9-oxo-4,8,12-triazatricyclo[9.4.0.0^2,7]pentadeca-1(11),2(7),3,5,12,14-hexaen-8-yl)acetamide] | 0.0158 to 0.0398 | 0.0398 to 0.1 |  | 
Cc1cc2c(c(F)n1)-c1cncnc1C(C)C(=O)N2CC(=O)Nc1ccc(Cl)c(F)c1 (single isomer, unassigned) [#217, Enantiomer (8S) or (8R) of N-(4-chloro-3-fluoro-phenyl)-2-[15-fluoro-8,13-dimethyl-9-oxo-4,6,10,14-tetrazatricyclo[9.4.0.0^2,7]pentadeca-1(15),2,4,6,11,13-hexaen-10-yl]acetamide] | < 0.0158 | < 0.0158 |  | 
Cc1cc2c(c(F)n1)-c1cncnc1C(C)C(=O)N2CC(=O)Nc1ccc(C(F)F)cc1 (single isomer, unassigned) [#218, Enantiomer (8S) or (8S) of (N-[4-(difluoromethyl)phenyl]-2-[15-fluoro-8,13-dimethyl-9-oxo-4,6,10,14-tetrazatricyclo[9.4.0.0^2,7]pentadeca-1(15),2,4,6,11,13-hexaen-10-yl]acetamide] | 0.1 to 0.501 | 0.0158 to 0.0398 |  | 
Cc1cc2c(c(=O)n1C)-c1ccccc1C(C)C(=O)N2CC(=O)Nc1ccc(Cl)c(F)c1 (single isomer, unassigned) [#219, Enantiomer (7S) or (7R) of N-(4-chloro-3-fluoro-phenyl)-2-[2,3,7-trimethyl-1,6-dioxo-7H-pyrido[4,3-d][3]benzazepin-5-yl]acetamide] | < 0.0158 | < 0.0158 |  | 
Cc1cc2c(c(Cl)n1)-c1cncnc1C(C)C(=O)N2CC(=O)Nc1ccc(Cl)c(F)c1 (single isomer, unassigned) [#220, Enantiomer (8S) or (8R) of 2-[15-chloro-8,13-dimethyl-9-oxo-4,6,10,14-tetrazatricyclo[9.4.0.0^2,7]pentadeca-1(15),2,4,6,11,13-hexaen-10-yl]-N-(4-chloro-3-fluoro-phenyl)acetamide] | < 0.0158 | < 0.0158 |  | 
Cc1cc2c(c(F)n1)-c1ccnn1C(C)C(=O)N2CC(=O)Nc1ccc(C(F)F)cc1 (single isomer, unassigned) [#221, Enantiomer (7S) or (7R) of N-[4-(difluoromethyl)phenyl]-2-[14-fluoro-7,12-dimethyl-8-oxo-5,6,9,13-tetrazatricyclo[8.4.0.0^2,6]tetradeca-1(14),2,4,10,12-pentaen-9-yl]acetamide] | 0.1 to 0.501 | 0.0398 to 0.1 |  | 
